Source: patent US6756402B2, “Cyclipostins, process for their preparation and use thereof” (Aventis Pharma Deutschland GmbH, priority 2000, dated 2004)
Like-named read-outs stand apart in the source and are kept apart here.

What was measured:
lipases = details: background statement on the known methyl analogue; cited from earlier work
HSL from rats = molecular target: T1, HSL from rats (Rattus norvegicus, UniProt P15304); assay: Inhibition of HSL from rats with NBD as substrate; format: biochemical
T1 construct: from tissue; host or cells: rat
T1 sequence (P15304 1-768 isoform P15304-2): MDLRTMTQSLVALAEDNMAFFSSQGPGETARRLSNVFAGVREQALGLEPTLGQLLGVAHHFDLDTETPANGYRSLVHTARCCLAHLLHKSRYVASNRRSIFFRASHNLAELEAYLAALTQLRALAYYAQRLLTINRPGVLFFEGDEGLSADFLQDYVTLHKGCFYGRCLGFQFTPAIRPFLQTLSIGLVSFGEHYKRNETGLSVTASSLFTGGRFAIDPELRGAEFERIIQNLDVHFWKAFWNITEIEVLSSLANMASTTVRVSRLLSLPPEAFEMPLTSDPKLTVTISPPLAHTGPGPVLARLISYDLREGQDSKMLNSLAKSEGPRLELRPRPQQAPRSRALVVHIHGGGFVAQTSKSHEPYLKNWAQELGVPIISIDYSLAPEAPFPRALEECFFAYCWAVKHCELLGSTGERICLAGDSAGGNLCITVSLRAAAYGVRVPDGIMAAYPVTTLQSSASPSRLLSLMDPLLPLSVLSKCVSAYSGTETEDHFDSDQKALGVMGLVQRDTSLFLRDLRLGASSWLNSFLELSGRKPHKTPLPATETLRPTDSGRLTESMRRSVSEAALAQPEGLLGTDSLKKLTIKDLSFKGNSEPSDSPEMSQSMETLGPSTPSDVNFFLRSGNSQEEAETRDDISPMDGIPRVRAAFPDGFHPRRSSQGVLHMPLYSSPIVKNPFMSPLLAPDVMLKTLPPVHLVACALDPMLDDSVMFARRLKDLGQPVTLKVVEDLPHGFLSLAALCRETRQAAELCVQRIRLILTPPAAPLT

[1] = test system: lipolysis in rat adipocytes; assay: Inhibition of lipolysis in rat adipocytes; format: cell-based; details: Adipocyte
[2] = Solubility (characterization of the isolated substance)
[3] = molecular target: T2, hormone-sensitive lipase (HSL) (Rattus norvegicus, UniProt P15304); assay: Inhibition of partially purified hormone-sensitive lipase (HSL) from rats, [3H]trioleoylglycerol substrate; format: biochemical
T2 construct: Isolated rat lipocytes were obtained from epididymal fatty tissue of nontreated male rats; from tissue; host or cells: rat epididymal fat tissue lipocytes (Wistar), partially purified
T2 sequence (P15304 1-768 isoform P15304-2): T1 sequence (P15304 1-768 isoform P15304-2)
Protocol: Isolated rat lipocytes were obtained from epididymal fatty tissue of nontreated male rats (Wistar, 220-250 g) by collagenase treatment according to published procedures (e.g., S. Nilsson et al., Anal. Biochem. 158:399-407 (1986); G. Fredrikson et al., J. Biol. Chem. 256, 6311-6320 (1981); H. Tornquist et al., J. Biol. Chem. 251:813-819 (1976)). The lipocytes from 10 rats were washed three times by flotation with 50 ml of homogenization buffer in each case ([…] TRIS/HCl, pH 7.4, 0.25 M sucrose, 1 mM EDTA, 1 mM DTT, 10 μg/ml of leupeptin, 10 μg/ml of antipain, 20 μg/ml of pepstatin) and finally taken up in 10 ml of homogenization buffer. The lipocytes were homogenized in a Teflon-in-glass homogenizer (Braun-Melsungen) by means of 10 strokes at 1500 rpm and 15° C. The homogenisate was centrifuged (Sorvall SM24 tubes, 5000 rpm, 10 min, 4° C.). The lower layer between the overlying fatty layer and the pellet was removed and the centrifugation was repeated. The lower layer resulting from this was centrifuged again (Sorvall SM24 tubes, 20000 rpm, 45 min, 4° C.). The lower layer was removed and treated with 1 g of heparin-sepharose (Pharmacia-Biotech, CL-6B, washed 5× with 25 mM Tris/HCl, pH 7.4, 150 mM NaCl). After incubation for 60 min at 4° C. (shaken at intervals of 15 min), the batch was centrifuged (Sorvall SM24 tubes, 3000 rpm, 10 min, 4° C.). The supernatant was brought to pH 5.2 by addition of acetic acid and incubated at 4° C. for 30 min. The precipitates were collected by centrifugation (Sorvall SS34, 12000 rpm, 10 min, 4° C.) and suspended in 2.5 ml of 20 mM Tris/HCl, pH 7.0, 1 mM EDTA, 65 mM NaCl, 13% of sucrose, 1 mM DTT, 10 μg/ml of leupeptin/pepstatin/antipain. The suspension was dialyzed overnight at 4° C. against 25 mM Tris/HCl, pH 7.4, 50% of glycerol, 1 mM DTT, 10 μg/ml of leupeptin, pepstatin, and antipain, and then applied to a hydroxylapetite column (0.1 g per 1 ml of suspension, equilibrated with 10 mM potassium phosphate, pH 7.0, 30% of glycerol, 1 mM DTT). The column was washed with four volumes of equilibration buffer at a flow rate of 20 to 30 ml/h. The HSL was eluted with a volume of equilibration buffer which contained 0.5 M potassium phosphate, then dialyzed (see above), and was concentrated 5 to 10 times by ultrafiltration (Amicon Diaflo PM 10 Filter) at 4° C. The partially purified HSL could be stored at −70° C. for 4 to 6 weeks.
For the preparation of the substrates, 25-50 μCi of [^3H]trioleoylglycerol (in toluene), 6.8 μMol of unlabeled trioleoylglycerol and 0.6 mg of phospholipid (phosphatidylcholine/phosphatidylinositol 3:1 w/v) were mixed, dried by means of N2 and then taken up in 2 ml of 0.1 M KPi (pH 7.0) by ultrasonic treatment (Branson 250, microtips, setting 1-2, 2×1 min at a 1 min interval). After addition of 1 ml of KPi and fresh ultrasonic treatment (4×30 sec on ice at 30 sec intervals), 1 ml of 20% BSA (bovine serum albumin) (in KPi) was added (final concentration of trioleoylglycerol at 1.7 mM). For the reaction, 100 μl of substrate solution were pipetted into 100 μl of HSL solution (HSL prepared as above, diluted in 20 mM KPi, pH 7.0, 1 mM EDTA, 1 mM DTT, 0.02% BSA, 20 μg/ml of pepstatin, 10 μg/ml of leupeptin) and incubated at 37° C. for 30 min. After addition of 3.25 ml of methanol/chloroform/heptane (10:9:7) and of 1.05 ml 0.1 M K2CO3, 0.1 M boric acid (pH 10.5), the batch was mixed well and finally centrifuged (800×g, 20 min). After phase separation, one equivalent of the upper phase (1 ml) was removed and the radioactivity was determined by liquid scintillation measurement.
Substances were generally tested in four independent batches. The inhibition of the enzymatic activity of the HSL by a test substance was determined by the comparison with a noninhibited control reaction. The calculation of the IC50 value was carried out by means of an inhibitory curve using at least 10 concentrations of the test substance. […]

[4] = NBD (4-chloro-7-nitrobenzo-2-oxa-1,3-diazole) as substrate, read-out: concentrations inhibiting HSL from rats
[5] = trioleoylglycerol as substrate, read-out: IC50, inhibition of hormone-sensitive lipase from rats

SMILES	selective lipase-inhibiting properties (lipases)	IC50 (HSL from rats; [4])	IC50 [1]	solubility in oxygen-containing organic solvents [2]	solubility in water and petroleum ether [2]	IC50 [3, 5]	IC50 (HSL from rats)	IC50 [3]
CO[P@]1(=O)OC[C@H]2COC(=O)C2=C(C)O1 [CGA 134 736]	no selective lipase-inhibiting properties							
CCCCC(O)CCCCCCCCCCCOP1(=O)OCC2COC(=O)C2=C(C)O1 (stereo not shown) [Cyclipostin A]		4 to 10 nM	~200 nM	soluble	only slightly soluble	20 nM		
CCCC(O)CCCCCCCCCCCCO[P@]1(=O)OC[C@H]2COC(=O)C2=C(C)O1 (stereo partly shown) [Cyclipostin B]				soluble	only slightly soluble			
CCC(=O)CCCCCCCCCCCCCOP1(=O)OC[C@H]2COC(=O)C2=C(C)O1 (stereo partly shown) [Cyclipostin F]				soluble	only slightly soluble			
CCCCCCCCCCCCCCOP1(=O)OCC2COC(=O)C2=C(C)O1 (stereo not shown) [Cyclipostin N]				soluble	only slightly soluble	450 nM		
CC1=C2C(=O)OCC2COP(=O)(OCCCCCCCCCCCCCC(C)C)O1 (stereo not shown) [Cyclipostin P2]			~200 nM	soluble	only slightly soluble		4 to 10 nM	40 nM
CCCCCCCCCCCCCCCCOP1(=O)OCC2COC(=O)C2=C(C)O1 (stereo not shown) [Cyclipostin P]			~200 nM	soluble	only slightly soluble		4 to 10 nM	30 nM
CC1=C2C(=O)OCC2COP(=O)(OCCCCCCCCCCCCC(C)C)O1 (stereo not shown) [Cyclipostin R2]				soluble	only slightly soluble	220 nM		
CCCCCCCCCCCCCCCOP1(=O)OCC2COC(=O)C2=C(C)O1 (stereo not shown) [Cyclipostin R]		4 to 10 nM	~200 nM	soluble	only slightly soluble	10 nM		
CCCCCCCCCCCCCCCCOP1(=O)OCC2COC(=O)C2=C(CC)O1 (stereo not shown) [Cyclipostin S]				soluble	only slightly soluble	20 nM		
CCCC1=C2C(=O)OCC2COP(=O)(OCCCCCCCCCCCCCC(C)C)O1 (stereo not shown) [Cyclipostin T2]				soluble	only slightly soluble	60 nM		
CCCCCCCCCCCCCCCCOP1(=O)OCC2COC(=O)C2=C(CCC)O1 (stereo not shown) [Cyclipostin T]				soluble	only slightly soluble	200 nM		
